In patent publication US20220204498A1, “PYRIDO-PYRIMIDINYL COMPOUNDS AND METHODS OF USE” (Genentech, Inc., priority 2019, published 2022) one finds IC50 data, which are given here for 23 compounds.

Where a name gives a salt, the structure may show the parent alone.

In this test the target is T1, IRE1α (Homo sapiens, UniProt O75460, D688N).
T1 construct: containing the kinase and RNase domains (KR, AA G547-1L977, D688N); made in house; host or cells: Sf9 insect cells
T1 sequence (O75460 547-977 D688N): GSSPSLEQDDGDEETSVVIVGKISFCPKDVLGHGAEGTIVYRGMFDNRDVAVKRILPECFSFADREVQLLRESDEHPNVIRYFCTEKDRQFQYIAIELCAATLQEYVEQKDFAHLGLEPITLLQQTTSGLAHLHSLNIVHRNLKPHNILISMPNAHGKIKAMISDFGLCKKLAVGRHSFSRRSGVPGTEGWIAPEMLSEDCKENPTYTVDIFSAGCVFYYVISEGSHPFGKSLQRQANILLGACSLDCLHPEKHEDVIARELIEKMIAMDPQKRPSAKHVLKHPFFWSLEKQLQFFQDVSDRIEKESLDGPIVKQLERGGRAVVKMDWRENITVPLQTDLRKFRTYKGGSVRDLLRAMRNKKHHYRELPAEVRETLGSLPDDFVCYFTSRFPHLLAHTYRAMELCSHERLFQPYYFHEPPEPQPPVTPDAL
Nature of the test: IRE1α TR-FRET competition binding assay (IRE1α HTRF). The note with it: His-tagged IRE1α kinase dead construct (KR, D688N) 0.25 nM; Alexa fluor 647-labeled ATP competitive probe 2 nM; one hour at room temperature; read-out: IRE1α (alpha) HTRF (IC50). As for the experimental part: Example 59. IRE1α TR-FRET Competition Binding Assay
To determine the affinity of compound binding to the kinase domain of IRE1α, a time-resolved fluorescence resonance energy transfer (TR-FRET) competition assay was used.
A His-tagged IRE1α kinase dead construct containing the kinase and RNase domains (KR, AA G547-1L977, D688N) was expressed in Sf9 insect cells. The purified protein (final concentration 0.25 nM) was pre-incubated with anti-His Europium labeled antibody (Life Technologies PV5596, final concentration 2 nM) for one hour at 4° C. in TR-FRET Assay Buffer (50 mM HEPES, pH 7.5, 10 mM MgCl2, 0.083 mM Brij 35, 1 mM DTT, and 0.1% bovine gamma globulin) prior to addition to test compounds. An Alexa fluor 647-labeled probe based on an ATP competitive inhibitor was added to a final concentration of 2 nM. Reactions were carried out for one hour at room temperature in a final volume of 20 μL in 384 well white ProxiPlates (Perkin Elmer 6008289). Binding of the probe to the IRE1α protein was detected in an Envision instrument (PerkinElmer) equipped with a TRF laser option and a LANCE/Delfia Dual/Bias D400/D630 mirror (Ex 347 nm, 1st Em 665 nm, 2nd Em 615 nm).
For orientation: TR-FRET usually uses a lanthanide donor and a delayed reading to cut background.
In the case of `Cc1cc(-c2ccc(NS(=O)(=O)CCC(C)(F)F)c(F)c2)nc2cnc(N[C@H]3CC[C@H](N(C)C)CC3)nc12` [Compound 113, N-(4-(2-(((1,4-trans)-4-(Dimethylamino)cyclohexyl)amino)-8-methylpyrido[3,2-d]pyrimidin-6-yl)-2-fluorophenyl)-3,3-difluorobutane-1-sulfonamide formate], the IC50 (usually the concentration that inhibits the measured activity by half) amounted to 170 pM.
Regarding `Cc1cc(-c2ccc(NS(=O)(=O)c3ccccc3Cl)c(F)c2)nc2cnc(N[C@H]3CC[C@H](N(C)C)CC3)nc12` [Compound 128, 2-Chloro-N-(4-(2-(((1,4-trans)-4-(dimethylamino)cyclohexyl)amino)-8-methylpyrido[3,2-d]pyrimidin-6-yl)-2-fluorophenyl)benzenesulfonamide], the IC50 was 160 pM.
On to `Cc1cc(-c2ccc(NS(=O)(=O)CCC(F)(F)F)nc2)nc2cnc(N[C@H]3CC[C@H](N(C)C)CC3)nc12` [Compound 125, N-(5-(2-(((1,4-trans)-4-(Dimethylamino)cyclohexyl)amino)-8-methylpyrido[3,2-d]pyrimidin-6-yl)pyridin-2-yl)-3,3,3-trifluoropropane-1-sulfonamide], for which the IC50 worked out at 440 pM.
Turning to `Cc1cc(-c2ccc3c(c2)CCS(=O)(=O)N3)nc2cnc(N[C@H]3CC[C@H](N(C)C)CC3)nc12` [Compound 151, 6-(2-(((1,4-trans)-4-(Dimethylamino)cyclohexyl)amino)-8-methylpyrido[3,2-d]pyrimidin-6-yl)-3,4-dihydro-1H-benzo[c][1,2]thiazine 2,2-dioxide], the concentration for half-maximal inhibition (IC50) was 39000 pM.
Next, `Cc1cc(-c2ccc(NS(=O)(=O)Cc3ccc(F)cc3)c(F)c2)nc2cnc(N[C@H]3CC[C@H](N(C)C)CC3)nc12` [Compound 129, N-(4-(2-(((1,4-trans)-4-(Dimethylamino)cyclohexyl)amino)-8-methylpyrido[3,2-d]pyrimidin-6-yl)-2-fluorophenyl)-1-(4-fluorophenyl)methanesulfonamide]: 80 pM; `CN(C)[C@H]1CC[C@H](Nc2ncc3nc(-c4ccc(NS(=O)(=O)c5ccccc5Cl)c(F)c4)cc(C(F)F)c3n2)CC1` [Compound 143, 2-Chloro-N-[(1,4-trans)-4-[8-(difluoromethyl)-2-[[4-(dimethylamino)cyclohexyl]amino]pyrido[3,2-d]pyrimidin-6-yl]-2-fluoro-phenyl]benzenesulfonamide]: 200 pM; `Cc1cc(-c2ccc(NS(=O)(=O)CCC(F)(F)F)c(F)c2)nc2cnc(N[C@H]3CC[C@H](N(C)C)CC3)nc12` [Compound 107, N-(4-(2-(((1r,4r)-4-(Dimethylamino)cyclohexyl)amino)-8-methylpyrido[3,2-d]pyrimidin-6-yl)-2-fluorophenyl)-3,3,3-trifluoropropane-1-sulfonamide]: 200 pM.
Next, `COc1cc(-c2ccc(NS(=O)(=O)CCC(F)(F)F)c(F)c2)nc2cnc(N[C@H]3CC[C@H](N(C)C)CC3)nc12` [Compound 118, N-(4-(2-(((1,4-trans)-4-(Dimethylamino)cyclohexyl)amino)-8-methoxypyrido[3,2-d]pyrimidin-6-yl)-2-fluorophenyl)-3,3,3-trifluoropropane-1-sulfonamide formate]: 22000 pM; `CC(Oc1nc2nc(N[C@@H]3CNC[C@@H](F)C3)ncc2cc1-c1ccc(NS(=O)(=O)Cc2ccccc2)c(F)c1F)C(F)F` (single isomer, unassigned) [Compound 102]: 1100 pM.
For the compound `CCc1cc(-c2ccc(NS(=O)(=O)Cc3ccc(F)cc3)nc2OC)nc2cnc(N[C@H]3CC[C@H](N(C)C)CC3)nc12` [Compound 142, N-(5-(2-(((1,4-trans)-4-(Dimethylamino)cyclohexyl)amino)-8-ethylpyrido[3,2-d]pyrimidin-6-yl)-6-methoxypyridin-2-yl)-1-(4-fluorophenyl)methanesulfonamide], the IC50 is 140 pM.
Next, `Cc1cc(-c2ccc(NS(=O)(=O)CCC(F)(F)F)c(Cl)c2)nc2cnc(N[C@H]3CC[C@H](N(C)C)CC3)nc12` [Compound 120, N-(2-Chloro-4-(2-(((1,4-trans)-4-(dimethylamino)cyclohexyl)amino)-8-methylpyrido[3,2-d]pyrimidin-6-yl)phenyl)-3,3,3-trifluoropropane-1-sulfonamide]: 250 pM; `CCc1cc(-c2ccc(NS(=O)(=O)c3ccccc3Cl)nc2OC)nc2cnc(N[C@H]3CC[C@H](N(C)C)CC3)nc12` [Compound 141, 2-Chloro-N-(5-(2-(((1,4-trans)-4-(dimethylamino)cyclohexyl)amino)-8-ethylpyrido[3,2-d]pyrimidin-6-yl)-6-methoxypyridin-2-yl)benzenesulfonamide]: 430 pM.
Next, `Cc1cc(-c2cc(F)c(NS(=O)(=O)Cc3ccc(F)cc3)cc2F)nc2cnc(N[C@H]3CC[C@H](N(C)C)CC3)nc12` [Compound 137, N-(4-(2-(((1,4-trans)-4-(Dimethylamino)cyclohexyl)amino)-8-methylpyrido[3,2-d]pyrimidin-6-yl)-2,5-difluorophenyl)-1-(4-fluorophenyl)methanesulfonamide]: 230 pM.
Regarding `Cc1cc(NS(=O)(=O)c2ccccc2Cl)ncc1-c1cc(C)c2nc(N[C@H]3CC[C@H](N(C)C)CC3)ncc2n1` [Compound 149, 2-Chloro-N-(5-(2-(((1,4-trans)-4-(dimethylamino)cyclohexyl)amino)-8-methylpyrido[3,2-d]pyrimidin-6-yl)-4-methylpyridin-2-yl)benzenesulfonamide], the IC50 is 3300 pM.
In the case of `Cc1cc(-c2ccc(NS(=O)(=O)c3cccnc3C(F)(F)F)c(F)c2)nc2cnc(N[C@H]3CC[C@H](N(C)C)CC3)nc12` [Compound 157, N-[4-[2-[[(1,4-trans)-4-(Dimethylamino)cyclohexyl]amino]-8-methyl-pyrido[3,2-d]pyrimidin-6-yl]-2-fluoro-phenyl]-2-(trifluoromethyl)pyridine-3-sulfonamide], the concentration for half-maximal inhibition (IC50) amounted to 230 pM.
For the compound `CCc1cc(-c2ccc(NS(=O)(=O)c3ccccc3C(F)F)nc2C)nc2cnc(N[C@H]3CC[C@H](N(C)C)CC3)nc12` [Compound 147, 2-(Difluoromethyl)-N-(5-(2-(((1,4-trans)-4-(dimethylamino)cyclohexyl)amino)-8-ethylpyrido[3,2-d]pyrimidin-6-yl)-6-methylpyridin-2-yl)benzenesulfonamide], the IC50 turned out to be 280 pM.
Take `COCc1cc(-c2ccc(NS(=O)(=O)Cc3ccc(F)cc3)c(F)c2)nc2cnc(N[C@H]3CC[C@H](N(C)C)CC3)nc12` [Compound 138, N-(4-(2-(((1,4-trans)-4-(Dimethylamino)cyclohexyl)amino)-8-(methoxymethyl)pyrido[3,2-d]pyrimidin-6-yl)-2-fluorophenyl)-1-(4-fluorophenyl)methanesulfonamide]: the concentration for half-maximal inhibition (IC50) was found to be 210 pM.
For the compound `Cc1cc(-c2c(F)cc(NS(=O)(=O)Cc3ccc(F)cc3)cc2F)nc2cnc(N[C@H]3CC[C@H](N(C)C)CC3)nc12` [Compound 140, N-(4-(2-(((1,4-trans)-4-(Dimethylamino)cyclohexyl)amino)-8-methylpyrido[3,2-d]pyrimidin-6-yl)-3,5-difluorophenyl)-1-(4-fluorophenyl)methanesulfonamide], the IC50 turned out to be 4500 pM.
As to `Cc1cc(-c2ccc(NS(=O)(=O)c3ccccn3)c(F)c2)nc2cnc(N[C@H]3CC[C@H](N(C)C)CC3)nc12` [Compound 158, N-(4-(2-(((1,4-trans)-4-(Dimethylamino)cyclohexyl)amino)-8-methylpyrido[3,2-d]pyrimidin-6-yl)-2-fluorophenyl)pyridine-2-sulfonamide], the IC50 is 200 pM.
As for `Cc1nc(NS(=O)(=O)Cc2ccc(F)cc2)ccc1-c1cc(C(F)F)c2nc(N[C@H]3CC[C@H](N(C)C)CC3)ncc2n1` [Compound 133, N-(5-(8-(Difluoromethyl)-2-(((1,4-trans)-4-(dimethylamino)cyclohexyl)amino)pyrido[3,2-d]pyrimidin-6-yl)-6-methylpyridin-2-yl)-1-(4-fluorophenyl)methanesulfonamide], the figure is 5200 pM; as for `Cc1cc(-c2cc(F)c(NS(=O)(=O)Cc3ccccc3)c(F)c2)nc2cnc(N[C@@H]3CNC[C@@H](F)C3)nc12` [Compound 108, N-(2,6-Difluoro-4-(2-(((3S,5S)-5-fluoropiperidin-3-yl)amino)-8-methylpyrido[3,2-d]pyrimidin-6-yl)phenyl)-1-phenylmethanesulfonamide], 200 pM; as for `CCc1cc(-c2ccc(NS(=O)(=O)CCC(F)(F)F)c(F)c2)nc2cnc(N[C@@H]3CNC[C@@H](F)C3)nc12` [Compound 119, N-(4-(8-Ethyl-2-(((3S,5S)-5-fluoropiperidin-3-yl)amino)pyrido[3,2-d]pyrimidin-6-yl)-2-fluorophenyl)-3,3,3-trifluoropropane-1-sulfonamide formate], 390 pM.
For the compound `Cc1cc(-c2ccc(NS(=O)(=O)c3ccccc3Cl)nc2)nc2cnc(N[C@H]3CC[C@H](N(C)C)CC3)nc12` [Compound 135, 2-Chloro-N-(5-(2-(((1,4-trans)-4-(dimethylamino)cyclohexyl)amino)-8-methylpyrido[3,2-d]pyrimidin-6-yl)pyridin-2-yl)benzenesulfonamide], the 50% inhibitory concentration (IC50) came out at 320 pM.
